In US20250388858A1, “COMPOSITION FOR EMBRYONIC DEVELOPMENT, COMPRISING RAD51 ACTIVATOR, AND METHOD FOR IMPROVING EMBRYONIC DEVELOPMENT RATE USING SAME” (CHA UNIVERSITY INDUSTRY-ACADEMIC COOPERATION FOUNDATION, priority 2018, published 2025):

Tests used:
SCNT eggs = experiment: RNA sequencing of cloned eggs at the 2-cell stage; assay type: cell-based, mouse; details: SCNT+RS-1 group
Protocol: To examine the effect of RS-1 treatment on SCNT eggs, RS-1 was treated to cloned eggs at the 2-cell stage during the somatic cell cloning procedure of Example 1, followed by RNA sequencing. At this time, IVF eggs were used as a negative control group. In detail, complementary DNA (cDNA) was amplified using a SMARTer ultra-low input RNA Kit for cDNA preparation (Takara, 634890) according to the manufacturer's instructions. cDNA was fragmented into about 200 bp fragments using a M220 sonicator (Covaris). The fragmented cDNAs were subjected to end-repair, and an adapter was ligated thereto. Sequencing libraries were prepared using a ScriptSeq v2 kit (Illumina) according to the manufacturer's instructions. Single-end sequencing was performed in HiSeq2500 (Illumina), and mapped to the mm9 mouse genome using STAR (v2.5.2b, https://github.com/alexdobin/STAR). Subsequently, […] (FPKM) was calculated by cuff link (v2.2.1) with default options.
To examine cloning mechanisms in the RS-1-treated SCNT egg (SCNT+RS-1) of Example 3 and the cloned egg (SCNT+Kdm4a) injected with Kdm4a mRNA during SCNT of Example 2, genes expressed in each egg were examined in the same manner as in Example 8.

[1] = test system: surrogate female ICR mice
From the text: It is reported that a success rate of cloned mouse production is generally about 1% after normal somatic cell cloning. Therefore, implantation and cloned pups formation rates of mice were examined according to treatment of SCNT eggs with RS-1. In detail, SCNT and SCNT+RS-1 oocytes at the 2-cell stage were implanted into the uterus of surrogate female ICR mice at 0.5 days after pseudopregnancy. At 19.5 days after implantation, the somatic cell cloned mice were separated from the uterus of the surrogate mother, and then the cloned mice were nurtured together with normal ICR mice born on the same day by ICR mice smeared with the smell of the surrogate mother.

blastocysts of SCNT eggs = experiment: Embryonic stem cell establishment from SCNT blastocysts; assay type: cell-based, mouse; details: SCNT+RS-1 blastocysts on MEF feeder cells; non-RS-1 treated group 17%; FIG. 9B
Protocol: In detail, blastocysts of each group was cultured on mouse embryonic fibroblast (MEF cells) feeder cells in a mouse embryonic stem cell culture medium. 20% KSR, 0.1 mM β-mercaptoethanol, 1% non-essential amino acids, 100 units/ml penicillin, 100 μg/ml streptomycin (all products available from GIBCO), 1.5×10^3 units/ml of recombination mLif (Chemicon) were used in the culture medium. Subculture was performed using Trypsin-EDTA, and the established embryonic stem cells of somatic cell cloned mice were treated with alkaline phosphatase. The established stem cells were evaluated by histochemical staining.

SCNT eggs (F/T SCNT) [2] = experiment: CellROX reactive oxygen species staining of eggs at the 2-cell stage; assay type: cell-based, mice; details: SCNT+RS-1 group, FIG. 5A
Protocol: In detail, IVF group, SCNT+RS-1 group, and SCNT group at the 2-cell stage were incubated at 37° C. for 30 min in the dark in a culture medium supplemented with 5 μM of CellROX oxidative stress reagent for 30 min. Thereafter, each group was washed with 0.1% PVA-added D-PBS, and nuclei were stained with Hoechst (Sigma).

SCNT eggs (F/T SCNT) [3] = experiment: Comet assay for DNA breaks; assay type: cell-based, mice; details: SCNT+RS-1 group vs SCNT group; FIG. 6
Protocol: In detail, to examine DNA damage, each sample in a 1 ml tube from which a culture medium was removed was suspended in 1% agarose at 37° C., and then fixed on a pre-coated slide (Trevigen). The slide was incubated at 4° C. for 4 hr, and then immersed in a solution (Trevigen) at 4° C. for 4 hr. The slide was removed from the lysis solution, and immersed in a 1×TAE buffer at 4° C. for 30 min, followed by electrophoresis for 30 min to 40 min. The slide was immersed in 1 M ammonium acetate at room temperature for 30 min, and then fixed at […] After fixing at room temperature for 30 min, incubation was performed at 42° C. for 20 min until agarose was completely dried. Thereafter, staining was performed using a 1×SYBR green I staining solution for 5 min.

SCNT eggs (F/T SCNT) [4] = experiment: Embryonic development of SCNT eggs cultured with RS-1 (somatic cell cloning efficiency); assay type: cell-based, mice; details: for Number of embryos at 2-cell stage (%)+: based on the number of reconstructed oocytes; for Number of embryos at 4-cell stage (%)# / Number of blastocysts (%)# / Number of embryos at 2-cell stage block (%)#: based on the number of embryos at 2-cell stage
Protocol: 5IU PMSG and 5IU hCG hormone were administered into 8-week to 10-week-old female BDF/1 mice. 14 hr after hCG administration, cumulus cells were isolated from superovulated mice using hyaluronidase and eggs were collected. The isolated cumulus cells were refrigerated for use as somatic cell for donor cells, and the isolated eggs were stored in a KSOM culture medium in an incubator at 37° C. until experiments started. Thereafter, to carry out a somatic cell cloning experiment, nuclei were removed from matured eggs, and cumulus cells isolated in advance were directly injected as donor cells. The cumulus cells injected as donor cells were artificially activated in a culture medium containing a Rad51-stimulatory compound 1 (RS-1) for 6 hr. Thereafter, the cells were incubated in the culture medium containing RS-1 reagent for 22 hr. 22 hr later, the cells were incubated in a KSOM culture medium for 72 hr to 96 hr.
First, to examine whether RS-1 induced toxicity to egg development, IVF eggs and SCNT eggs (F/T SCNT) of Example 1 were treated with 0 μM, 1 μM, 5 μM, and 10 μM of RS-1, respectively, and an appropriate concentration was selected.

SCNT eggs (F/T SCNT) [5] = experiment: LC3B (autophagy) and MitoTracker (mitochondria) staining of eggs; assay type: cell-based, mice; details: 2-cell stage; SCNT+RS-1 group; FIG. 3B
Protocol: In detail, to evaluate mitochondria distribution, SCNT-derived somatic cell cloned eggs at the 1-cell stage, 2-cell stage, and 4-cell stage were stained using MitoTracker Orange CMTMRos (Molecular Probes). Mitotracker was used at a concentration of 300 nM in an M16 culture medium supplemented with 0.3% BSA at 37° C. for 30 min in the dark. After washing, the oocytes were fixed and immunofluorescently stained with LC3B antibody and then nuclei were stained with DAPI.

SCNT eggs (F/T SCNT) [6] = experiment: Immunostaining of DNA damage biomarker rH2AX and Rad51; assay type: cell-based, mice
Protocol: In detail, IVF group, SCNT group, and SCNT+RS-1 group fixed in 4% paraformaldehyde were arrested at the 1-cell stage, 2-cell stage, and 4-cell stage, and then incubated with rH2AX (Abcam, ab22551) Rad51 (Abcam, ab63801) for 2 hr, followed by incubation in the presence of goat anti-mouse antibody diluted with PBS/0.1% BSA at 1:200, and goat anti-rabbit antibody at the same concentration for 1 hr. Thereafter, nuclei were stained with DAPI.

## O=C(Nc1ccc(Br)cc1)c1ccc(Br)c(S(=O)(=O)NCc2ccccc2)c1 [RS-1, 3-[(benzylamino)sulfonyl]-4-bromo-N-(4-bromophenyl)benzamide]
SCNT eggs
  number of genes significantly decreased: 414 genes
  number of genes significantly increased: 190 genes
[1]; SCNT+RS-1 oocytes at the 2-cell stage implanted into surrogate ICR mice, generally about 1% after normal cloning, FIG. 9A
  production rate of cloned mouse: 5%
[1]; mouse, in vivo
  toxicity during development: no toxicity problem
Blastocysts of SCNT eggs
  induction rate of embryonic stem cells: 45%
SCNT eggs (F/T SCNT) [2]
  reactive oxygen species in the nuclei: tended to increase
SCNT eggs (F/T SCNT) [3]
  DNA breaks (length of 3'-end, comet assay): DNA breaks were decreased
  generation of the abnormal 3'-end: significantly reduced
SCNT eggs (F/T SCNT) [4]; RS-1 1 μM, 45 NT oocytes
  Number of embryos at 2-cell stage (%)+: 42%
SCNT eggs (F/T SCNT) [4]; RS-1 1 μM
  Number of embryos at 4-cell stage (%)#: 35%
  Number of blastocysts (%)#: 8(19) %
  Number of embryos at 2-cell stage block (%)#: 7(16.7) %
SCNT eggs (F/T SCNT) [4]; RS-1 5 μM, 46 NT oocytes
  Number of embryos at 2-cell stage (%)+: 43%
SCNT eggs (F/T SCNT) [4]; RS-1 5 μM
  Number of embryos at 4-cell stage (%)#: 36%
  Number of blastocysts (%)#: 18(41.9) %
  Number of embryos at 2-cell stage block (%)#: 7(16.3) %
SCNT eggs (F/T SCNT) [4]; RS-1 10 μM, 54 NT oocytes
  Number of embryos at 2-cell stage (%)+: 50%
SCNT eggs (F/T SCNT) [4]; RS-1 10 μM
  Number of embryos at 4-cell stage (%)#: 47%
  Number of blastocysts (%)#: 28(56) %
  Number of embryos at 2-cell stage block (%)#: 3(6) %
SCNT eggs (F/T SCNT) [4]; RS-1 10 μM, control group 31%, Table 1
  embryonic development rate: 76%
SCNT eggs (F/T SCNT) [4]; treatment with RS-1 during SCNT, FIG. 3A, control group 17%
  embryonic development rate: 59%
SCNT eggs (F/T SCNT) [4]; treatment with RS-1 during SCNT, FIG. 3A, control group 39%
  number of embryos at the 2-cell stage block: 5%
SCNT eggs (F/T SCNT) [5]
  autophagy (LC3B) and mitochondria (mitotracker) expression pattern: intensive autophagy and mitochondria expression in the nucleus
SCNT eggs (F/T SCNT) [6]; 1-cell stage, SCNT+RS-1 group vs SCNT group
  DNA damage (rH2AX and Rad51 expression): significant reduction in DNA damage
SCNT eggs (F/T SCNT) [6]; 2-cell stage block, SCNT+RS-1 group compared with other groups
  DNA damage (rH2AX and Rad51 expression): very strong DNA damage in the nucleus
